Assay results taken from ChEMBL document CHEMBL1141496, “Biphenylsulfonyl-thiophene-carboxamidine inhibitors of the complement component C1s” (Bioorg Med Chem Lett, 2008).
Values after ≈ are worked out from the molar mass of the structure shown.

How the values were obtained:
[1] = molecular target: T1, Complement C1s subcomponent (Homo sapiens, UniProt P09871); experiment: Inhibition of Complement C1s subcomponent
T1 sequence (P09871 whole entry): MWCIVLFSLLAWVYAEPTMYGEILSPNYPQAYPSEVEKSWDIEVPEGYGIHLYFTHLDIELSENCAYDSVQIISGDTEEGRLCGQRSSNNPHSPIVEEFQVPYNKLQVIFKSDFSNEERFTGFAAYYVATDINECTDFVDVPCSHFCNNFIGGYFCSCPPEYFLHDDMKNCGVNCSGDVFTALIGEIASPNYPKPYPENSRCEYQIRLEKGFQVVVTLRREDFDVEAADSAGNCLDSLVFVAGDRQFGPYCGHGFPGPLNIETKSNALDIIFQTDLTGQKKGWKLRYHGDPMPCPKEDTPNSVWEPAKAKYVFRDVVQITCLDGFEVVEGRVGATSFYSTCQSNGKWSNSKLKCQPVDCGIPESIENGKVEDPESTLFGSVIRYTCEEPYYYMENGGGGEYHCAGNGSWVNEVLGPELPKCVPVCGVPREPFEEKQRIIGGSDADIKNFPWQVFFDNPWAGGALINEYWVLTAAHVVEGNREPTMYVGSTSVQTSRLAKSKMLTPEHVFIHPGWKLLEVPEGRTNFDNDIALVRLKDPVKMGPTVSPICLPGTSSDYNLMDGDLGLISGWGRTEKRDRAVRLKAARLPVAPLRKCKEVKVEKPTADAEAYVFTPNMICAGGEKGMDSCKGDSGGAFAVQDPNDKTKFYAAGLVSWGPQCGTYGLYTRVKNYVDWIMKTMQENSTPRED

[2] = Aqueous solubility at physiological pH; format: physicochemical
[3] = Half life in rat at 2 mg/kg, iv; format: ADME, organism-based; design: dose 2 mg/kg, route intravenous; details: in vivo
[4] = Volume of distribution in rat at 2 mg/kg, iv; format: ADME, organism-based; design: dose 2 mg/kg, route intravenous; details: in vivo
hERG (KCNH2) = hERG (KCNH2) (Homo sapiens, UniProt Q12809); experiment: Inhibition of human ERG at 10 uM by patch clamp assay
hERG (KCNH2), sequence (Q12809 whole entry): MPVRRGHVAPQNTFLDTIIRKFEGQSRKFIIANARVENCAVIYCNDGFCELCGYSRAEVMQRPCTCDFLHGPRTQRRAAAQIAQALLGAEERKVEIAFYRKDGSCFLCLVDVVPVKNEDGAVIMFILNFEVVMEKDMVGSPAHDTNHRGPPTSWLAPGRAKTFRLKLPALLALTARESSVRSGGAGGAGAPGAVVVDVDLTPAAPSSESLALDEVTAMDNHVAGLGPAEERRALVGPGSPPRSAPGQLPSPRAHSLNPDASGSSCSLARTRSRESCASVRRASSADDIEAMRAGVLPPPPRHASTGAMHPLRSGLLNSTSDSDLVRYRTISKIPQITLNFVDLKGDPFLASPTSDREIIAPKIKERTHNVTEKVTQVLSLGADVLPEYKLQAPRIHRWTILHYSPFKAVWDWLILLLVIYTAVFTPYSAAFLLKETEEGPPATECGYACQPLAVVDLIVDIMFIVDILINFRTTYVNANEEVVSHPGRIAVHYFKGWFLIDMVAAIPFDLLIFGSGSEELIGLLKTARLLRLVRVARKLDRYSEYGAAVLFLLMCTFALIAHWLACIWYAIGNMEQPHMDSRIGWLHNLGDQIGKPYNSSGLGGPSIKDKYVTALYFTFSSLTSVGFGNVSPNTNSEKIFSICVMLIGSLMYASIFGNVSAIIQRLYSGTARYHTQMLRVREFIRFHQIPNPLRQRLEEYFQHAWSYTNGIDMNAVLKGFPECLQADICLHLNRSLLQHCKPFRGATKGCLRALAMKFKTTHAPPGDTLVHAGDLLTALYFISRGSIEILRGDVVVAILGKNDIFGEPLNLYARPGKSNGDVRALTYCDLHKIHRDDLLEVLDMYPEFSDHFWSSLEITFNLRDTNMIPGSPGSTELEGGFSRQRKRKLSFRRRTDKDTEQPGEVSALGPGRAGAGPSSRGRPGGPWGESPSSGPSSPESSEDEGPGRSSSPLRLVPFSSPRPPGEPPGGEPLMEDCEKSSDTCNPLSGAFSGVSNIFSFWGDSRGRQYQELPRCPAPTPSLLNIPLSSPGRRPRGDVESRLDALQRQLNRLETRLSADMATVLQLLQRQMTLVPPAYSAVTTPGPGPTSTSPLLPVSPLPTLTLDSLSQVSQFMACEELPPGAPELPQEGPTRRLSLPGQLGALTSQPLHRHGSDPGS

[5] = Clearance in rat at 2 mg/kg, iv; format: ADME, organism-based; design: dose 2 mg/kg, route intravenous; details: in vivo

Structure (SMILES) | Ki [1] | other results
CSc1sc(C(=N)N)cc1S(=O)(=O)c1cccc(-c2ccc(O)cc2)c1 | 0.19 µM | –
CSc1sc(C(=N)N)cc1S(=O)(=O)c1cccc(-c2ccc(C)cc2)c1 | 0.25 µM | –
C=Cc1ccccc1-c1cccc(S(=O)(=O)c2cc(C(=N)N)sc2SC)c1 | 0.14 µM | –
CSc1sc(C(=N)N)cc1S(=O)(=O)c1cccc(-c2c(C)cccc2NC(=O)CCCS(C)(=O)=O)c1 | 0.014 µM | solubility [2]: 35 µM (≈ 19.8 µg/mL); half-life [3]: 1.8 h; Vd [4]: 2.03 L/kg; clearance [5]: 130 mL/min/kg
COc1cccc(-c2cccc(S(=O)(=O)c3cc(C(=N)N)sc3SC)c2)c1 | 0.49 µM | –
CSc1sc(C(=N)N)cc1S(=O)(=O)c1cccc(-c2ccccc2Cl)c1 | 0.04 µM | –
CSc1sc(C(=N)N)cc1S(=O)(=O)c1cccc(Br)c1 | 0.36 µM | –
COc1ccccc1-c1cccc(S(=O)(=O)c2cc(C(=N)N)sc2SC)c1 | 0.61 µM | –
COc1ccc(-c2cccc(S(=O)(=O)c3cc(C(=N)N)sc3SC)c2)cc1 | 0.35 µM | –
CSc1sc(C(=N)N)cc1S(=O)(=O)c1cccc(-c2ccccc2)c1 | 0.26 µM | –

Continued, in another order:

Ki [1] | Structure (SMILES) | other results
0.15 µM | CSc1sc(C(=N)N)cc1S(=O)(=O)c1cccc(-c2cccc(O)c2)c1 | –
0.03 µM | CSc1sc(C(=N)N)cc1S(=O)(=O)c1cccc(-c2ccccc2C)c1 | –
0.04 µM | CSc1sc(C(=N)N)cc1S(=O)(=O)c1cccc(-c2cccc(C)n2)c1 | solubility [2]: 22 µM (≈ 8.88 µg/mL); half-life [3]: 2 h; Vd [4]: 15 L/kg; inhibition at 10 µM (hERG (KCNH2)): 66%; clearance [5]: 283 mL/min/kg
0.12 µM | CSc1sc(C(=N)N)cc1S(=O)(=O)c1cccc(-c2ccccc2CO)c1 | –
0.022 µM | CSc1sc(C(=N)N)cc1S(=O)(=O)c1cccc(-c2c(C)cccc2NC(=O)NCCCCCC(=O)O)c1 | solubility [2]: 39 µM (≈ 22.4 µg/mL); half-life [3]: 0.2 h; Vd [4]: 2.65 L/kg; inhibition at 10 µM (hERG (KCNH2)): 5.8%; clearance [5]: 228 mL/min/kg
0.02 µM | CSc1sc(C(=N)N)cc1S(=O)(=O)c1cccc(-c2c(C)cccc2N)c1 | –
0.46 µM | CSc1sc(C(=N)N)cc1S(=O)(=O)c1cccc(-c2ccccc2O)c1 | –
0.12 µM | CSc1sc(C(=N)N)cc1S(=O)(=O)c1cccc(-c2c(C)cccc2NC(=O)CS(C)(=O)=O)c1 | solubility [2]: 43 µM (≈ 23.1 µg/mL)
0.05 µM | CSc1sc(C(=N)N)cc1S(=O)(=O)c1cccc(-c2c(C)cccc2CO)c1 | –
1.85 µM | CSc1sc(C(=N)N)cc1S(=O)(=O)c1cccc(-c2cccc(C)c2)c1 | –
0.064 µM | CSc1sc(C(=N)N)cc1S(=O)(=O)c1cccc(-c2c(C)cccc2NC(=O)NCCc2nn[nH]n2)c1 | inhibition at 10 µM (hERG (KCNH2)): 1%
0.042 µM | CSc1sc(C(=N)N)cc1S(=O)(=O)c1cccc(-c2c(C)cccc2NC(=O)CCCCC(=O)O)c1 | solubility [2]: 40 µM (≈ 21.8 µg/mL)
0.15 µM | CSc1sc(C(=N)N)cc1S(=O)(=O)c1cccc(-c2c(C)cccc2C(=O)O)c1 | –
